# Test results as given in ChEMBL document CHEMBL3526034 (Drug Metab Dispos, 2013).
# Experiments:
# CYP2C9 = CYP2C9 (Homo sapiens, UniProt P11712); experiment: Inhibition of CYP2C9 in human liver microsomes using diclofenac as substrate at 100 uM preincubated for 20 mins with substrate prior to initiation of reaction with NADPH by HPLC analysis; format: ADME; details: probe diclofenac
# [1] = target: UDP-glucuronosyltransferase 2B7 (Homo sapiens, UniProt P16662); experiment: Inhibition of human recombinant UGT2B7 expressed in supersomes assessed as 7-HFC glucuronidation up to 100 uM by fluoresence analysis; format: ADME; details: recombinant enzyme
# Sequence of UDP-glucuronosyltransferase 2B7 (P16662 whole entry): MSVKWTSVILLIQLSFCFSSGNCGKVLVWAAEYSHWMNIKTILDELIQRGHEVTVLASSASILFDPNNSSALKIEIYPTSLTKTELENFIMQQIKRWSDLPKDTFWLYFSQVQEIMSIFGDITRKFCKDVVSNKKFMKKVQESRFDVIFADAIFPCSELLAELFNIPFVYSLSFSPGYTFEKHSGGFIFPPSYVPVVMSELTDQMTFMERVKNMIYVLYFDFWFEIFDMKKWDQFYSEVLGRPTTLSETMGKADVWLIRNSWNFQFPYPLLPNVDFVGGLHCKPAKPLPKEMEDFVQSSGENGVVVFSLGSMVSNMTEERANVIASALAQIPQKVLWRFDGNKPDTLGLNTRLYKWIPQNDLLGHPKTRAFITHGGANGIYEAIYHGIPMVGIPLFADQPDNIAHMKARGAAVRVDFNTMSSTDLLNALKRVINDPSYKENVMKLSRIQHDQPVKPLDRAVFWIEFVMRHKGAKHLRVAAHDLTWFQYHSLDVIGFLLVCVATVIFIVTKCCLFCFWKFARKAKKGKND
# [2] = Drug excretion in human urine at 20 mg, po; format: ADME, tissue-based; details: read-out: Drug excretion
# [3] = target: T1, ATP-binding cassette sub-family C member 2 (Homo sapiens, UniProt Q92887); experiment: Inhibition of human MRP2
# T1 sequence (Q92887 whole entry): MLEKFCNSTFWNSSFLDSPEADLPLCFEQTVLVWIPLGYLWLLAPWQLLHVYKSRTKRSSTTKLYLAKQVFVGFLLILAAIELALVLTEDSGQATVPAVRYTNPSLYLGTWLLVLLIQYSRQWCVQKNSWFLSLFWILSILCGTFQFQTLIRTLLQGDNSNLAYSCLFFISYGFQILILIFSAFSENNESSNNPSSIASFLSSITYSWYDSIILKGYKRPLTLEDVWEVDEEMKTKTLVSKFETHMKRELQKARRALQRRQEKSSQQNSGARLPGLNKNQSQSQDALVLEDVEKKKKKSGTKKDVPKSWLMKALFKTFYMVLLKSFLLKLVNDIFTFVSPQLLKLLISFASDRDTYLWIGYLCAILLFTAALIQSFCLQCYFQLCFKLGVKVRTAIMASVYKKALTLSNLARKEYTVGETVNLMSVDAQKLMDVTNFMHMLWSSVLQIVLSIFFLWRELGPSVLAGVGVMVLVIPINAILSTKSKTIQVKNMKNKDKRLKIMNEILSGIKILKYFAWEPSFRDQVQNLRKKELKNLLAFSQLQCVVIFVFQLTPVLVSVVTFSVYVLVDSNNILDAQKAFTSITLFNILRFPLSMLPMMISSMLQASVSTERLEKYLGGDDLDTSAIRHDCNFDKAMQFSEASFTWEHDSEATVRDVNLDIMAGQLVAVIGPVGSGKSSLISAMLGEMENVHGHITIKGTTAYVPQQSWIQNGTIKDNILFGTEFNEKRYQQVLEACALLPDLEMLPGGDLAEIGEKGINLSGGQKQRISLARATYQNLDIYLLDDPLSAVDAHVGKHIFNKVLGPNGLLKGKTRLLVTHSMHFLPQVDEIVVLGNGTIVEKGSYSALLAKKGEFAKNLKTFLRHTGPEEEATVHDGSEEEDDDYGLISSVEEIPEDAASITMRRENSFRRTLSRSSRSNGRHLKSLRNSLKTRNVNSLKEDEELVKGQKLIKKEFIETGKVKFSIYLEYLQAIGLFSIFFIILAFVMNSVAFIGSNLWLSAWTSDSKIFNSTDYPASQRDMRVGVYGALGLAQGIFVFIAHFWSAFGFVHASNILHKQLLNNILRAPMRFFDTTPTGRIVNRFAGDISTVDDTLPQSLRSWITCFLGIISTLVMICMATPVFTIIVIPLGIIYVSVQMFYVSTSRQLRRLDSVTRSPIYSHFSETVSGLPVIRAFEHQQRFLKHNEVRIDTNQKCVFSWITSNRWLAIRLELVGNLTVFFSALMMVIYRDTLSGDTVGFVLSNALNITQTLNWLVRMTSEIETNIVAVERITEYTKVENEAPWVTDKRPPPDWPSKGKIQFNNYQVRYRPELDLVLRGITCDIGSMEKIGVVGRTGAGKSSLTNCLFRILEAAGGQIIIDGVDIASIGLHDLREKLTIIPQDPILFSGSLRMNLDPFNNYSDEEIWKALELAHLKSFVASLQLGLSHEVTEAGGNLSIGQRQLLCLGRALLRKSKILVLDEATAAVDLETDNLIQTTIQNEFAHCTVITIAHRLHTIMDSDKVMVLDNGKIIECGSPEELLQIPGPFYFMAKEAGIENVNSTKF
# [4] = target: T2, Broad substrate specificity ATP-binding cassette transporter ABCG2 (Homo sapiens, UniProt Q9UNQ0); experiment: Inhibition of human BCRP; format: ADME
# T2 sequence (Q9UNQ0 whole entry): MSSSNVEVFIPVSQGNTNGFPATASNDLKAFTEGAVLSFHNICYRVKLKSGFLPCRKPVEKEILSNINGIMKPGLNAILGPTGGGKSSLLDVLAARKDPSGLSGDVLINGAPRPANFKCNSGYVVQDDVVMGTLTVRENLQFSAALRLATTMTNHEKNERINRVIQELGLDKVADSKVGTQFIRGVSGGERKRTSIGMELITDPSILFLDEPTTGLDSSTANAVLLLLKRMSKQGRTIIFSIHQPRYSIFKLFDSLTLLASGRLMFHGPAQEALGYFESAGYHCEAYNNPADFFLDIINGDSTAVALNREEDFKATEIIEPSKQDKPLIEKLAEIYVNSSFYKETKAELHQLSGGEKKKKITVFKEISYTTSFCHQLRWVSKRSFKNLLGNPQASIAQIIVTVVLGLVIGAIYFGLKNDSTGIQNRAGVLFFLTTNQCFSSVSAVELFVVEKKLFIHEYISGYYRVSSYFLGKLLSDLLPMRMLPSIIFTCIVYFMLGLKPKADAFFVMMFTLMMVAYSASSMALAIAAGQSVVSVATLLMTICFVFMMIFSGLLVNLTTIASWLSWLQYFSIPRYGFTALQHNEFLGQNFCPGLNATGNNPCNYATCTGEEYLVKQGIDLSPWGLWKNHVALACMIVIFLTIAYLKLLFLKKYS
# [5] = Protein binding in plasma (unknown origin); format: ADME, cell-free; details: read-out: PPB
# Cytochrome P450 2A6 = Cytochrome P450 2A6 (Homo sapiens, UniProt P11509); experiment: Metabolism-dependent inhibition of CYP2A6 in human liver microsomes using coumarin as substrate preincubated for 20 mins with NADPH prior to initiation of reaction with probe substrate by HPLC analysis; format: ADME
# Sequence of Cytochrome P450 2A6 (P11509 whole entry): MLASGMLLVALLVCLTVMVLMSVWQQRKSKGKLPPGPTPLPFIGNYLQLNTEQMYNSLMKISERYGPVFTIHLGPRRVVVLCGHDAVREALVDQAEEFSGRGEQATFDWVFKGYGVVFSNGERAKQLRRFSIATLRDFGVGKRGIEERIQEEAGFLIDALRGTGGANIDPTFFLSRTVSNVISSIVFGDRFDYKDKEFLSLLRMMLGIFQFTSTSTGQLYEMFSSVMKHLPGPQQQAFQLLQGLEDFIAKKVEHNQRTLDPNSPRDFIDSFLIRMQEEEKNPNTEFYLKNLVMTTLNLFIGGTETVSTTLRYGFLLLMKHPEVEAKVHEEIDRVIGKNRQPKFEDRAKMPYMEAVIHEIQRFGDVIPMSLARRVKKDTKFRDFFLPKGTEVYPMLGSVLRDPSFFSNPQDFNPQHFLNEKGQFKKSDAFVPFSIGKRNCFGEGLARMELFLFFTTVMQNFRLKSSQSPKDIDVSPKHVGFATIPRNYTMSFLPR
# Cytochrome P450 2C19 = Cytochrome P450 2C19 (Homo sapiens, UniProt P33261); experiment: Metabolism-dependent inhibition of CYP2C19 in human liver microsomes using S-mephenytoin as substrate preincubated for 20 mins with NADPH prior to initiation of reaction with probe substrate by HPLC analysis; format: ADME
# Cytochrome P450 2D6 [6] = target: T3, Cytochrome P450 2D6 (Homo sapiens, UniProt P10635); experiment: Metabolism-dependent inhibition of CYP2D6 in human liver microsomes using bufuralol as substrate preincubated for 20 mins with NADPH prior to initiation of reaction with probe substrate by HPLC analysis; format: ADME
# T3 sequence (P10635 whole entry): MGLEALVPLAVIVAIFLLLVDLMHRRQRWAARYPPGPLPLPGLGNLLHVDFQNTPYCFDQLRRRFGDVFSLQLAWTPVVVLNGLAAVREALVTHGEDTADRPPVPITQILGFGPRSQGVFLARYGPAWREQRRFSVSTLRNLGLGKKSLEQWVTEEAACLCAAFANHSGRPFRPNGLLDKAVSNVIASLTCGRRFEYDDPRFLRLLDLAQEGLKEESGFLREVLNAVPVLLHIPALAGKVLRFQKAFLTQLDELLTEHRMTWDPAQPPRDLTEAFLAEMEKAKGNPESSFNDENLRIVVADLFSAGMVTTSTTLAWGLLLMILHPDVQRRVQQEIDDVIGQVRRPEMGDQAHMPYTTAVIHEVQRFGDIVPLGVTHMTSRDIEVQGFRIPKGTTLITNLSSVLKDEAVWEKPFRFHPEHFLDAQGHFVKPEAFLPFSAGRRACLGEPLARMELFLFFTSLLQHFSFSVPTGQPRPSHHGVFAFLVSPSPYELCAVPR
# [7] = target: T2, Broad substrate specificity ATP-binding cassette transporter ABCG2; experiment: Inhibition of BCRP (unknown origin) expressed in MDCK2 cells assessed as basolateral to apical transport of [14C]cimetidine after 90 mins by liquid scintillation counting analysis; format: ADME, cell-based, MDCK-II
# [8] = target: T1, ATP-binding cassette sub-family C member 2; experiment: Inhibition of human MRP2 expressed in baculovirus-infected Sf9 cell membrane vesicle using [3H]estradiol 17beta-D-glucuronide as substrate preincubated with vesicles for 5 mins prior to substrate addition by liquid scintillation counting analysis
# [9] = target: Solute carrier organic anion transporter family member 1B3 (Homo sapiens, UniProt Q9NPD5); experiment: Inhibition of human OATP1B3 expressed in BacMam baculovirus virus infected HEK MSR2 cells using [3H]estradiol 17beta-D-glucuronide as substrate by liquid scintillation counting analysis; format: ADME, HEK293
# Sequence of Solute carrier organic anion transporter family member 1B3 (Q9NPD5 whole entry): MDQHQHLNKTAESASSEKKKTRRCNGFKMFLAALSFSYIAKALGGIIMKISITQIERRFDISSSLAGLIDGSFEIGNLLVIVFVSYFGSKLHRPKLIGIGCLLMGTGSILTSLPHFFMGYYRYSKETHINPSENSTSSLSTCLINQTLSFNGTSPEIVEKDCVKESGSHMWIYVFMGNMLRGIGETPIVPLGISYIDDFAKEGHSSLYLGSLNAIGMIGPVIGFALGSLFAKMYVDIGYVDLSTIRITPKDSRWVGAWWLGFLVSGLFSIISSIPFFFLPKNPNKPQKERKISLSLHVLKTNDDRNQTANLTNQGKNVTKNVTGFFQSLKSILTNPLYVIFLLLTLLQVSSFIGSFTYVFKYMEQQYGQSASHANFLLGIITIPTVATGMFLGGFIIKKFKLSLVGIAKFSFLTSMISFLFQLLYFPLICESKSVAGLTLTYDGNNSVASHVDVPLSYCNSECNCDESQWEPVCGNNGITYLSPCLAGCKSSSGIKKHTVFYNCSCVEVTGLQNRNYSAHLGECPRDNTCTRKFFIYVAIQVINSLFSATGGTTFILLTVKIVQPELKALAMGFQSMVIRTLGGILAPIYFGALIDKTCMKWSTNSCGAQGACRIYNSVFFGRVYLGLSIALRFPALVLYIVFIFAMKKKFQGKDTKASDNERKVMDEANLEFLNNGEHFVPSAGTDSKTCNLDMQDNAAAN
# MDR1 (P-gp, ABCB1) = MDR1 (P-gp, ABCB1) (Homo sapiens, UniProt P08183); experiment: Activity at human MDR1 expressed in MDCK2 cells assessed as apical to basolateral mass balance at 3 uM by liquid scintillation counting analysis; format: ADME, cell-based, MDCK-II; details: MDCK-MDR1, read-out: Activity
# Sequence of MDR1 (P-gp, ABCB1) (P08183 whole entry): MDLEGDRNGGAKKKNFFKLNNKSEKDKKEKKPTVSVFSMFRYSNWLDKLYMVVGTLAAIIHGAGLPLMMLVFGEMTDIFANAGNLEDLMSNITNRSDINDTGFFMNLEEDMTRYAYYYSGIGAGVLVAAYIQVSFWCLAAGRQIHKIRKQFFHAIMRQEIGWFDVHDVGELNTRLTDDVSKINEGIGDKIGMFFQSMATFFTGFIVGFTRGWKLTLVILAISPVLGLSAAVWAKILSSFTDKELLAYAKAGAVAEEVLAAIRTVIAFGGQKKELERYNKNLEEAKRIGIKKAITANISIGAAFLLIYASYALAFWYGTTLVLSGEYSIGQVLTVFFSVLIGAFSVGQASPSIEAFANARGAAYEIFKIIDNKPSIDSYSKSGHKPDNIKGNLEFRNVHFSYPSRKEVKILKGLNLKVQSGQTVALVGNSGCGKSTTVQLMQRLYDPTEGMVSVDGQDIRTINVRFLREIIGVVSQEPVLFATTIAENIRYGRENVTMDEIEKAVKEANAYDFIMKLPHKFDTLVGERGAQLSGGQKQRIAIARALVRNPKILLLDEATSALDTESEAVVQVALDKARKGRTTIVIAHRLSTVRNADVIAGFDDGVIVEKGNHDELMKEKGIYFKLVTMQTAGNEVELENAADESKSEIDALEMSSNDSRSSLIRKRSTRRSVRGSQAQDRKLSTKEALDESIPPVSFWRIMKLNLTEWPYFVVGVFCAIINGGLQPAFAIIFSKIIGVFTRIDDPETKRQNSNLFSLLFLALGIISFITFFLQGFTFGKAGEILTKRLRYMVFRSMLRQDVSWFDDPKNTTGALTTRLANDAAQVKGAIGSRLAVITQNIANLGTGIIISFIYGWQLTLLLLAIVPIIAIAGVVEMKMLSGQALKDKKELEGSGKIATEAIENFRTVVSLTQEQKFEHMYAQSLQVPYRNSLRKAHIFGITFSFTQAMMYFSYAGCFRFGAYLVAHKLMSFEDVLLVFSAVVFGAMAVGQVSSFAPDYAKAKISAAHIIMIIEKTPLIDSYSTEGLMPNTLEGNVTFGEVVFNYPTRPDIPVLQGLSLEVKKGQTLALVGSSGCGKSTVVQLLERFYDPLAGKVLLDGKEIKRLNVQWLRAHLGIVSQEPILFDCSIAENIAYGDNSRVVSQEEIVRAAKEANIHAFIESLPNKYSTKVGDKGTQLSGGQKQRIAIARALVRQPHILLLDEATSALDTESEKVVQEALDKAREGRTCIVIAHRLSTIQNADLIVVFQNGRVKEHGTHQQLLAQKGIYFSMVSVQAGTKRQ
# BCRP (ABCG2) [10] = target: T4, BCRP (ABCG2) (Homo sapiens, UniProt Q9UNQ0); experiment: Activity at human BCRP expressed in MDCK2 cells assessed as apical to basolateral mass balance at 3 uM by liquid scintillation counting analysis; format: ADME, cell-based, MDCK-II; details: read-out: Activity
# T4 sequence (Q9UNQ0 whole entry): T2 sequence (Q9UNQ0 whole entry)
# BCRP (ABCG2) [11] = target: T4, BCRP (ABCG2); experiment: Activity at human BCRP expressed in MDCK2 cells assessed as apical to basolateral mass balance at 3 uM by liquid scintillation counting analysis in presence of 3 uM P-gp and BCRP inhibitor GF120918; format: ADME, cell-based, MDCK-II; details: with GF120918 (P-gp and BCRP inhibitor), read-out: Activity
# BCRP (ABCG2) [12] = target: T4, BCRP (ABCG2); experiment: Activity at human BCRP expressed in MDCK2 cells assessed as basolateral to apical mass balance at 3 uM by liquid scintillation counting analysis; format: ADME, cell-based, MDCK-II; details: read-out: Activity
# [13] = target: T2, Broad substrate specificity ATP-binding cassette transporter ABCG2; experiment: Inhibition of BCRP (unknown origin) expressed in MDCK2 cells assessed as basolateral to apical transport of [14C]cimetidine at 100 uM after 90 mins by liquid scintillation counting analysis; format: ADME, cell-based; details: mdck-ii, 1.5 h
# Cytochrome P450 2B6 = target: T5, Cytochrome P450 2B6 (Homo sapiens, UniProt P20813); experiment: Drug metabolism in supersomes expressing human recombinant CYP2B6 assessed as NADPH-fortified enzyme-mediated metabolite formation at 5 uM after 120 mins by radio HPLC analysis; format: ADME; details: 2 h
# T5 sequence (P20813 whole entry): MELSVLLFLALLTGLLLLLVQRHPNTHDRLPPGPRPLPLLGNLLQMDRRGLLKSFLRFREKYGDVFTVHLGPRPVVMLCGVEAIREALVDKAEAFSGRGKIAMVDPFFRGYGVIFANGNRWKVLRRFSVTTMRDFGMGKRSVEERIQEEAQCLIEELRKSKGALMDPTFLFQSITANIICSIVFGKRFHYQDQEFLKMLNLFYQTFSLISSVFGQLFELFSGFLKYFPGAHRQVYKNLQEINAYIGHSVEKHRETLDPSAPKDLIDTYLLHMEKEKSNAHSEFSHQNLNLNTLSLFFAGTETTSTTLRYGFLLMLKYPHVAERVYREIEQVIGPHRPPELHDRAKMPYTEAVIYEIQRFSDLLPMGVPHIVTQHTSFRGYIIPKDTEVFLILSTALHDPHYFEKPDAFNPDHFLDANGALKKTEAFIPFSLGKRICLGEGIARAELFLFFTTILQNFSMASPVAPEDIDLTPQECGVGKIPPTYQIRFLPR
# Cytochrome P450 2D6 [14] = target: T3, Cytochrome P450 2D6; experiment: Drug metabolism in supersomes expressing human recombinant CYP2D6 assessed as NADPH-fortified enzyme-mediated metabolite formation at 5 uM after 120 mins by radio HPLC analysis; format: ADME; details: 2 h
# Liver microsome = experiment: Drug metabolism in UDPGA-fortified human liver microsomes assessed as DTG glucuronide metabolite ((2S,3S,4S,5R,6S)-6-((4R,12aS)-9-(2,4-difluorobenzylcarbamoyl)-4-methyl-6,8-dioxo-3,4,6,8,12,12a-hexahydro-2H-[1,3]oxazino[3,2-d]pyrido[1,2-a]pyrazin-7-yloxy)-3,4,5-trihydroxytetrahydro-2H-pyran-2-carboxylic acid) formation at 16 uM treated for 4 hrs by radio-HPLC analysis; format: ADME
smiles,measurement,setting,value
C[C@@H]1CCO[C@H]2Cn3cc(C(=O)NCc4ccc(F)cc4F)c(=O)c(O)c3C(=O)N12 [DOLUTEGRAVIR],inhibition at 100 µM,CYP2C9,20%
same,inhibition (INH),[1],Not Active
same,dose excreted,[2],31.6%
same,IC50,[3],> 90 µM
same,IC50,[4],67 µM
same,fraction unbound,[5],< 0.01
same,IC50,Cytochrome P450 2A6,> 100 µM
same,IC50,Cytochrome P450 2C19,> 100 µM
same,IC50,Cytochrome P450 2D6 [6],> 100 µM
same,IC50,[7],> 30 µM
same,IC50,[8],> 100 µM
same,IC50,[9],> 100 µM
same,recovery at 3 µM,"MDR1 (P-gp, ABCB1)",84%
same,recovery at 3 µM,BCRP (ABCG2) [10],81%
same,recovery at 3 µM,BCRP (ABCG2) [11],81%
same,recovery at 3 µM,BCRP (ABCG2) [12],85%
same,inhibition (INH),[13],50%
same,Drug metabolism,Cytochrome P450 2B6,metabolite_not_detected
same,Drug metabolism,Cytochrome P450 2D6 [14],metabolite_not_detected
same,Drug metabolism,Liver microsome,metabolite_detected
